Values quoted from earlier work, collected in patent US5434174A, “Isoxazole derivatives for the treatment of irritable bowel syndrome” (priority 1993, dated 1995).

Conditions: IBS therapy; cited from earlier work

## CCN(CC)CCOC(=O)C1(C2CCCCC2)CCCCC1 [Bentyl]
  side effects: serious side effects
